Measured values from US8809372B2, “Pyridine derivatives” (Endo Pharmaceuticals, Inc., priority 2011, dated 2014).

Target: T1, rat CYP17 (rat testicular microsomes) (Rattus norvegicus, UniProt P11715)
T1 construct: Rat testis tissue was collected and disrupted with 30 strokes of a glass homogenizer; from tissue; host or cells: rat testis (microsomes)
T1 sequence (P11715 1-507): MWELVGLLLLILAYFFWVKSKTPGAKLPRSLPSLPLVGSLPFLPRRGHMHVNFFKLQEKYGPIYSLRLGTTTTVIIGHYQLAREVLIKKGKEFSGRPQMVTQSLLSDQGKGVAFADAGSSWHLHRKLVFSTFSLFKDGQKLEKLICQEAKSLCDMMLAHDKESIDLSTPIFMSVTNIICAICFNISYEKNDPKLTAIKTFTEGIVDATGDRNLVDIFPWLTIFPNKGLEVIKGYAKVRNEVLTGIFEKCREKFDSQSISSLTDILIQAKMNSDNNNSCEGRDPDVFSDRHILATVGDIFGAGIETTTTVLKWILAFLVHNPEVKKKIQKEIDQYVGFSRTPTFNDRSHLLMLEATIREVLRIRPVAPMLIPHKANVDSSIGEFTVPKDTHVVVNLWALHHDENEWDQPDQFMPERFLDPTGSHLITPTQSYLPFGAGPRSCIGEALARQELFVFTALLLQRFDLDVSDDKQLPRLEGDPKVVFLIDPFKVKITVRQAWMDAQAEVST
Assay: CYP17 inhibition assay in rat testicular microsomes
Assay type: biochemical
Method in brief: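 Rat testicular microsomes (150–160 μg) or yeast microsomes expressing human CYP17 (1.7 pmol) react with ³H-17α-hydroxypregnenolone (1 μCi/reaction) and 325 μM NADPH in potassium phosphate buffer, pH 7.4. Compound is pre-incubated with substrate for 15 min, then the reaction runs 60 min at 37 °C. After chloroform extraction and charcoal treatment, aqueous radioactivity is measured by scintillation counting.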

SMILES | IC50
Cn1cc(-c2ccc(C(C)(O)c3ccncc3)s2)ccc1=O (stereo not drawn) [Example 15, 5-(5-(1-Hydroxy-1-(pyridin-4-yl)ethyl)thiophen-2-yl)-1-methyl-pyridin-2(1H)-one] | < 50 nM
CCC(O)(c1ccncc1)c1cnc(-c2ccc(F)cc2)s1 (stereo not drawn) [Example 4, 1-(2-(4-fluorophenyl)-thiazol-5-yl)-1-(pyridin-4-yl)propan-1-ol] | < 50 nM
CC(O)(c1ccncc1)c1nc(-c2ccc(F)cc2)no1 (stereo not drawn) [Example 34, 1-(3-(4-Fluorophenyl)-1,2,4-oxadiazol-5-yl)-1-(pyridin-4-yl)ethanol] | < 50 nM
COc1ccc(-c2ccc(C(C)(O)c3ccncc3)nc2)cc1 (single isomer, unassigned) [Example 2, 1-(5-(4-methoxyphenyl)-pyridin-2-yl)-1-(pyridin-4-yl)ethanol] | < 50 nM
Cn1cc(-c2ccc(C(C)(O)c3ccncc3)s2)ccc1=O (single isomer, unassigned; (-)) [Example 17, (−)-5-(5-(1-hydroxy-1-(pyridin-4-yl)ethyl)thiophen-2-yl)-1-methylpyridin-2(1H)-one] | < 50 nM
CC(O)(c1ccncc1)c1ncc(-c2ccc(F)cc2)s1 (stereo not drawn) [Example 14, 1-(5-(4-Fluorophenyl)thiazol-2-yl)-1-(pyridin-4-yl)ethanol] | < 50 nM
COc1ccc(-c2ccc(C(C)(O)c3ccncc3)nc2)cc1 (single isomer, unassigned) [Example 3, 1-(5-(4-methoxyphenyl)-pyridin-2-yl)-1-(pyridin-4-yl)ethanol] | 50 to 200 nM
CC(O)(c1ccncc1)c1cnc(-c2ccc(F)cc2)s1 (single isomer, unassigned) [Example 9, 1-(2-(4-fluorophenyl)thiazol-5-yl)-1-(pyridin-4-yl)ethanol] | < 50 nM
CC(O)(c1ccncc1)c1cnc(-c2ccc(F)cc2)s1 (racemic) [Example 7, 1-(2-(4-Fluorophenyl)thiazol-5-yl)-1-(pyridin-4-yl)ethanol] | < 50 nM
CC(O)(c1ccncc1)c1cnc(-c2ccc(F)cc2)s1 (single isomer, unassigned) [Example 8, 1-(2-(4-fluorophenyl)thiazol-5-yl)-1-(pyridin-4-yl)ethanol] | < 50 nM
CC(O)(c1ccncc1)c1nc(-c2ccc(F)cc2)no1 (single isomer, unassigned; (+)) [Example 36, (+)-1-(3-(4-fluoro-phenyl)-1,2,4-oxadiazol-5-yl)-1-(pyridin-4-yl)ethanol] | < 50 nM
COc1ccc(-c2ccc(C(C)(O)c3ccncc3)nc2)cc1 (racemic) [Example 1, 1-(5-(4-Methoxyphenyl)pyridin-2-yl)-1-(pyridin-4-yl)ethanol] | < 50 nM
